ChEMBL document CHEMBL2375290, “Nonclassical antifolates, part 3: synthesis, biological evaluation and molecular modeling study of some new 2-heteroarylthio-quinazolin-4-ones” (Eur J Med Chem, 2013)

Tests used:
[1] = tested on: CAKI-1; assay: Cytotoxicity against human Caki1 cells at 10 uM after 48 hrs by coulter counter analysis; type: functional; conditions: CAKI-1, 48 h, read-out: GI
[2] = tested on: RPMI-8226; assay: Cytotoxicity against human RPMI8226 cells at 10 uM after 48 hrs by coulter counter analysis; type: functional; conditions: RPMI-8226, 48 h, read-out: GI
[3] = tested on: A549; assay: Cytotoxicity against human A549/ATCC cells at 10 uM after 48 hrs by coulter counter analysis; type: functional; conditions: A549, 48 h, read-out: GI
[4] = tested on: SF-295; assay: Cytotoxicity against human SF295 cells at 10 uM after 48 hrs by coulter counter analysis; type: functional; conditions: SF-295, 48 h, read-out: GI
[5] = tested on: SNB-75; assay: Cytotoxicity against human SNB75 cells at 10 uM after 48 hrs by coulter counter analysis; type: functional; conditions: SNB-75, 48 h, read-out: GI
[6] = tested on: MDA-MB-435; assay: Cytotoxicity against human MDA-MB-435 cells at 10 uM after 48 hrs by coulter counter analysis; type: functional; conditions: MDA-MB-435, 48 h, read-out: GI
[7] = tested on: Micrococcus luteus; assay: Antimicrobial activity against Micrococcus luteus at 200 ug after 24 hrs by agar disc diffusion method; type: functional; conditions: read-out: DIZ
[8] = tested on: SR; assay: Cytotoxicity against human SR cells at 10 uM after 48 hrs by coulter counter analysis; type: functional; conditions: read-out: GI
[9] = tested on: RXF 393; assay: Cytotoxicity against human RXF393 cells at 10 uM after 48 hrs by coulter counter analysis; type: functional; conditions: RXF 393, 48 h, read-out: GI
[10] = tested on: NCI-H226; assay: Cytotoxicity against human NCI-H226 cells at 10 uM after 48 hrs by coulter counter analysis; type: functional; conditions: NCI-H226, 48 h, read-out: GI
[11] = tested on: A498; assay: Cytotoxicity against human A498 cells at 10 uM after 48 hrs by coulter counter analysis; type: functional; conditions: A498, 48 h, read-out: GI
[12] = tested on: HL-60(TB); assay: Cytotoxicity against human HL-60(TB) cells at 10 uM after 48 hrs by coulter counter analysis; type: functional; conditions: HL-60, 48 h, read-out: GI
[13] = tested on: Staphylococcus aureus; assay: Antimicrobial activity against Staphylococcus aureus at 200 ug after 24 hrs by agar disc diffusion method; type: functional; conditions: read-out: DIZ
[14] = Cytotoxicity against human EKVX cells at 10 uM after 48 hrs by coulter counter analysis; type: functional; conditions: read-out: GI
[15] = tested on: NCI-H522; assay: Cytotoxicity against human NCI-H522 cells at 10 uM after 48 hrs by coulter counter analysis; type: functional; conditions: NCI-H522, 48 h, read-out: GI
[16] = tested on: OVCAR-4; assay: Cytotoxicity against human OVCAR4 cells at 10 uM after 48 hrs by coulter counter analysis; type: functional; conditions: OVCAR-4, 48 h, read-out: GI
[17] = tested on: MCF7; assay: Cytotoxicity against human MCF7 cells at 10 uM after 48 hrs by coulter counter analysis; type: functional; conditions: MCF7, 48 h, read-out: GI
[18] = tested on: Bacillus subtilis; assay: Antimicrobial activity against Bacillus subtilis at 200 ug after 24 hrs by agar disc diffusion method; type: functional; conditions: read-out: DIZ
[19] = tested on: SNB-19; assay: Cytotoxicity against human SNB19 cells at 10 uM after 48 hrs by coulter counter analysis; type: functional; conditions: SNB-19, 48 h, read-out: GI
[20] = tested on: Pseudomonas aeruginosa; assay: Antimicrobial activity against Pseudomonas aeruginosa at 200 ug after 24 hrs by agar disc diffusion method; type: functional; conditions: read-out: DIZ
[21] = tested on: UO-31; assay: Cytotoxicity against human UO31 cells at 10 uM after 48 hrs by coulter counter analysis; type: functional; conditions: UO-31, 48 h, read-out: GI
[22] = tested on: PC-3; assay: Cytotoxicity against human PC3 cells at 10 uM after 48 hrs by coulter counter analysis; type: functional; conditions: PC-3, 48 h, read-out: GI
[23] = tested on: Malme-3M; assay: Cytotoxicity against human MALME-3M cells at 10 uM after 48 hrs by coulter counter analysis; type: functional; conditions: read-out: GI
[24] = tested on: SK-MEL-5; assay: Cytotoxicity against human SK-MEL-5 cells at 10 uM after 48 hrs by coulter counter analysis; type: functional; conditions: SK-MEL-5, 48 h, read-out: GI
[25] = tested on: T47D; assay: Cytotoxicity against human T47D cells at 10 uM after 48 hrs by coulter counter analysis; type: functional; conditions: read-out: GI
[26] = tested on: SN12C; assay: Cytotoxicity against human SN12C cells at 10 uM after 48 hrs by coulter counter analysis; type: functional; conditions: read-out: GI
[27] = tested on: MDA-MB-231; assay: Cytotoxicity against human MDA-MB-231 cells at 10 uM after 48 hrs by coulter counter analysis; type: functional; conditions: MDA-MB-231, 48 h, read-out: GI
[28] = biological target: T1, Dihydrofolate reductase (Bos taurus, UniProt P00376); assay: Inhibition of bovine DHFR after 2 mins by spectrophotometry
T1 sequence (P00376 whole entry): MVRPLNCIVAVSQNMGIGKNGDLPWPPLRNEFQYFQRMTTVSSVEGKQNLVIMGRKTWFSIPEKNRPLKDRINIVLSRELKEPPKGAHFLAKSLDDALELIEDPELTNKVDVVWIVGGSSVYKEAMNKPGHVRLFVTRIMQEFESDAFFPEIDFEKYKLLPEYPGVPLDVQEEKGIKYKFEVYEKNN

[29] = tested on: Hs-578T; assay: Cytotoxicity against human Hs578T cells at 10 uM after 48 hrs by coulter counter analysis; type: functional; conditions: read-out: GI
[30] = tested on: IGROV-1; assay: Cytotoxicity against human IGROV1 cells at 10 uM after 48 hrs by coulter counter analysis; type: functional; conditions: IGROV-1, 48 h, read-out: GI
[31] = tested on: Escherichia coli; assay: Antimicrobial activity against Escherichia coli at 200 ug after 24 hrs by agar disc diffusion method; type: functional; conditions: read-out: DIZ
[32] = tested on: MOLT-4; assay: Cytotoxicity against human MOLT4 cells at 10 uM after 48 hrs by coulter counter analysis; type: functional; conditions: MOLT-4, 48 h, read-out: GI
[33] = tested on: NCI-H23; assay: Cytotoxicity against human NCI-H23 cells at 10 uM after 48 hrs by coulter counter analysis; type: functional; conditions: NCI-H23, 48 h, read-out: GI
[34] = tested on: CCRF-CEM; assay: Cytotoxicity against human CCRF-CEM cells at 10 uM after 48 hrs by coulter counter analysis; type: functional; conditions: read-out: GI
[35] = Cytotoxicity against human NCI-ADR-RES cells at 10 uM after 48 hrs by coulter counter analysis; type: functional; conditions: read-out: GI
[36] = tested on: LOX IMVI; assay: Cytotoxicity against human LOXIMVI cells at 10 uM after 48 hrs by coulter counter analysis; type: functional; conditions: read-out: GI
[37] = tested on: UACC-62; assay: Cytotoxicity against human UACC62 cells at 10 uM after 48 hrs by coulter counter analysis; type: functional; conditions: UACC-62, 48 h, read-out: GI

SMILES	inhibition of growth at 10 µM [1] [%]	inhibition of growth at 10 µM [2] [%]	inhibition of growth at 10 µM [3] [%]	inhibition of growth at 10 µM [4] [%]	inhibition of growth at 10 µM [5] [%]	inhibition of growth at 10 µM [6] [%]	zone of inhibition at 200 µg/disc [7] [mm]	inhibition of growth at 10 µM [8] [%]	inhibition of growth at 10 µM [9] [%]	inhibition of growth at 10 µM [10] [%]	inhibition of growth at 10 µM [11] [%]	inhibition of growth at 10 µM [12] [%]	zone of inhibition at 200 µg/disc [13] [mm]	inhibition of growth at 10 µM [14] [%]	inhibition of growth at 10 µM [15] [%]	inhibition of growth at 10 µM [16] [%]	zone of inhibition at 200 µg/disc [18] [mm]	zone of inhibition at 200 µg/disc [20] [mm]	IC50 [28] [µM]	zone of inhibition at 200 µg/disc [31] [mm]	other results
O=C(O)c1cccnc1Sc1nc2ccc(Cl)cc2c(=O)n1-c1ccccc1	< 10	< 10	< 10	< 10	< 10	< 10	8	< 10	< 10	15.1	< 10	< 10	15	< 10	< 10	< 10	16	8	8	8	inhibition of growth at 10 µM [17]: < 10%; inhibition of growth at 10 µM [19]: < 10%; inhibition of growth at 10 µM [21]: 20.5%; inhibition of growth at 10 µM [22]: < 10%; inhibition of growth at 10 µM [23]: < 10%; inhibition of growth at 10 µM [24]: < 10%; inhibition of growth at 10 µM [25]: 15%; inhibition of growth at 10 µM [26]: < 10%; inhibition of growth at 10 µM [27]: 10.4%; inhibition of growth at 10 µM [29]: < 10%; inhibition of growth at 10 µM [30]: < 10%; inhibition of growth at 10 µM [32]: < 10%; inhibition of growth at 10 µM [33]: < 10%; inhibition of growth at 10 µM [34]: < 10%; inhibition of growth at 10 µM [35]: < 10%; inhibition of growth at 10 µM [36]: < 10%; inhibition of growth at 10 µM [37]: < 10%
Cc1ccc2nc(Sc3cnc(N)s3)n(-c3ccccc3)c(=O)c2c1	20.9	< 10	< 10	< 10	< 10	< 10	8	37.8	< 10	12.4	< 10	< 10	8	< 10	13.8	< 10	8	8	0.8	8	inhibition of growth at 10 µM [17]: < 10%; inhibition of growth at 10 µM [19]: < 10%; inhibition of growth at 10 µM [21]: 20.7%; inhibition of growth at 10 µM [22]: 10.1%; inhibition of growth at 10 µM [23]: < 10%; inhibition of growth at 10 µM [24]: < 10%; inhibition of growth at 10 µM [25]: < 10%; inhibition of growth at 10 µM [26]: < 10%; inhibition of growth at 10 µM [27]: 18.1%; inhibition of growth at 10 µM [29]: < 10%; inhibition of growth at 10 µM [30]: 14.3%; inhibition of growth at 10 µM [32]: < 10%; inhibition of growth at 10 µM [33]: < 10%; inhibition of growth at 10 µM [34]: < 10%; inhibition of growth at 10 µM [35]: < 10%; inhibition of growth at 10 µM [36]: < 10%; inhibition of growth at 10 µM [37]: < 10%
Cc1ccc2nc(Sc3cc([N+](=O)[O-])ccc3C(=O)O)n(Cc3ccccc3)c(=O)c2c1							8						8				8	8	12	8	
COc1cc2nc(Sc3cc([N+](=O)[O-])ccc3C(=O)O)n(Cc3ccccc3)c(=O)c2cc1OC							8						18				8	8	3	8	
CCOC(=O)c1nc(N)sc1Sc1nc2cc(OC)c(OC)cc2c(=O)n1Cc1ccccc1							8						18				20	8	2	8	
